# Reference: patent US6365173B1, “Stereocomplex polymeric carriers for drug delivery” (Efrat Biopolymers Ltd., priority 1999, dated 2002)
# Key:
# Assay type in all cases: physicochemical
# [1] = In vitro release of leuprolide from D-PLA/L-PLA complex powder; details: in 40 days; 4 mg leuprolide acetate in D-PLA/L-PLA complex powder; phosphate buffer pH 7.4 at 37° C.
# Protocol: Preparation of complex: Solutions of leuprolide acetate in acetonitrile (4 mg) and D-PLA, (58 mg, Mw=100,000) and L-PLA (38 mg, Mw=30,000) in acetonitrile were mixed together (total 5 ml) and allowed to stir for 3 days at 50° C. The precipitated powder was isolated by filtration to yield 98 mg of 1 micron size porous particles. No leuprolide remained in the acetonitrile solution.
# In vitro release was conducted in phosphate buffer pH 7.4 at 37° C. Leuprolide concentration was determined by HPLC (acetonitrile:water, C18 column, 1 ml/min). About 37% of the drug was released constantly in 40 days.
# [2] = Release of lidocaine from compression molded stereocomplex devices in buffer; details: compression molded D-PLA/L-PLA stereocomplex (200 mg, Mw=30,000) with lidocaine (20 mg); buffer solution pH 7.4 at 37° C.
# Protocol: A fine powder of the nano-discs stereocomplexed of D-PLA and L-PLA and their complexes which were of flat shapes of discs, rods, and triangles, as analyzed in Example 3, provided a unique opportunity for the preparation of drug delivery devices. Devices were prepared by compression molding of these nanoscale structures with drugs.
# The disintegration time and the release of the incorporated drug in buffer solutions was slower than the compression molded devices of the corresponding regular polymers. The regular polymer powders are difficult to obtain and their properties are erratic, since they are prepared by precipitation in non-aqueous solvent and grinding at a temperature below the glass transition temperature which provides irregular particle size and shape. The particles formed by stereocomplex formation are of well-defined flat crystallites that are easy to compression mold.
# In a typical experiment, disc (10×2 mm) and rod shape (4×10 mm) devices were prepared by mixing the stereocomplex powder of D-PLA and L-PLA (200 mg, Mw=30,000) with lidocaine (20 mg) and compression molding into discs of […] size.
# Lidocaine was released constantly for 30 days when placed in buffer solution p H7.4 at 37° C.
# [3] = MTX release from PLA stereocomplex tablets in phosphate buffer; details: first 10 days; 10 ml pH 7.4 phosphate buffer at 37° C., shaking 150 RPM
# Protocol: Formulations: MTX was incorporated in a stereocomplex of D-PLA/L-PLA (Mw=30,000) prepared by precipitation in acetonitrile. The drug in the form of a powder was mixed with the stereocomplex in the form of a powder, and the mixture compression molded to form tablets. Alternatively, the stereocomplex and MTX were dissolved in dichloromethane, and solvent evaporated to yield a fine powder. For comparison, a solution of random amorphic DL-PLA (Mw=30,000) and MTX was evaporated to dryness to yield a clear flexible and strong yellow film which could be formed into a powder through the use of liquid nitrogen.
# In a typical experiment, 300 mg of PLA 1:1 stereocomplex was dissolved in dichloromethane. MTX (5% w/w) was added to the solution, and the mixture was vortexed for two minutes. The solvent was evaporated with a nitrogen stream, to yield a very fine powder. […] Discs were prepared by compression molding of the MTX—stereocomplex power (100 mg) using a stainless steel mold (internal diameter 10 mm) and a Carver Press at 10 tons. Alternatively, 300 mg of PLA 1:1 stereocomplex fine powder (average particle size 2.2 microns was mixed with MTX (150 mg) and the uniform powder was compressed into tablets of 200 mg each.
# MTX release was conducted in 10 ml of pH 7.4 phosphate buffer at 37° C. with constant shaking of 150 RPM. […]
# [4] = Ibuprofen release from D-PLA-HSA stereocomplex tablets in phosphate buffer; details: ibuprofen (100 mg) with D-PLA-HSA or D-PLA-L-PLA-HSA (500 mg), 300 mg tablets; phosphate buffer at physiological pH 37° C.
# Protocol: The precipitate of D-PLA-HSA prepared as described in Example 9 was also used as a matrix carrier for the delivery of small drugs. In a typical experiment, a fine powder of ibuprofen (100 mg) was mixed with the D-PLA-HSA or D-PLA-L-PLA-HSA (500 mg) and the powder was compressed into tablets of 300 mg each. The tablets released the ibuprofen for one week when placed in phosphate buffer at physiological pH 37° C. In similar experiments, other proteins were stereocomplexed with PLA enantiomers including fibrin, fibrinogen, collagen and gelatin.
# [5] = LHRH release from PLA stereocomplex powders in phosphate buffer (syringe method, HPLC); details: nanosize complexes of LHRH with D-PLA, precipitated in hot acetonitrile
# Protocol: The analysis of LHRH was conducted using the following HPLC method: Mobile phase comprised 30% acetonitrile, 70% TEAP (triethylammoniumphosphate) buffer […] pH-3. Column comprised Lichrosphere RP-18 […] (MERCK); Detector. UV 278 nm and flow rate at 1 ml/min.
# All samples were filtered through a 2μ filter. One drop of phosphoric acid was added to the sample solutions before injection. The retention time for LHRH was 6.5 minutes and a calibration curve was generated (r2=0.999).
# Since the powder of the LHRH in the stereocomplex is very thin, all the attempts to sink it at the release medium failed. The release was conducted in the following way: 100 mg of the powder in 5 ml phosphate buffer were added to a 10 ml syringe. The edge of the syringe was sealed and constantly shaken at a rate of 150 RPM and a temperature of 37° C. At each interval of time, the syringe was inverted so that the solid floated at the top of the buffer and all of the buffer was pushed out of the syringe in a dropwise fashion. Using this technique, the powders of LHRH in PLA stereocomplex (formulations a-e) were analyzed against a control blank of PLA stereocomplex (no drug).
# [6] = TRH release from D-PLA complex powder in phosphate buffer; details: D-PLA complex powder (10% w/w TRH) dispersed in phosphate buffer pH7.4 at 37° C.
# Protocol: TRH is a tripeptide with the following structure: pL-Glu-L-His-L-Pro_NH2. 250 mg of D-PLA (Mw=30,000 or Mw=6,000) were mixed with 25 mg (10% w/w) of TRH in 10 ml acetonitrile at 60° C. The solution became clear after 15 minutes and remained clear for 72 hours, at which point precipitate formed. The solution was very turbid, but could not be filtered at room temperature due to the fine particle size of the precipitate. After cooling at 0° C. over night, the precipitate was filtered. The TRH concentration in the acetonitrile solution and in the powder was analyzed as described above using the Lowry method for peptide analysis. Over 90% of the drug was determined to be in the powder and a negligible amount of the drug was found in the acetonitrile solution. When dispersed in phosphate buffer pH7.4 at 37° C., TRH was constantly released for 6 weeks.
compound,measurement,setting,value
"CCNC(=O)[C@@H]1CCCN1C(=O)[C@H](CCCNC(=N)N)NC(=O)[C@H](CC(C)C)NC(=O)[C@@H](CC(C)C)NC(=O)[C@H](Cc1ccc(O)cc1)NC(=O)[C@H](CO)NC(=O)[C@H](Cc1c[nH]c2ccccc12)NC(=O)[C@H](Cc1c[nH]cn1)NC(=O)[C@@H]1CCC(=O)N1 [Leuprolide, leuprolide acetate]",drug (leuprolide) released constantly,[1],About 37%
"CCN(CC)CC(=O)Nc1c(C)cccc1C [Lidocaine, lidocaine]",time over which lidocaine was released constantly,[2],30 days
"CN(Cc1cnc2nc(N)nc(N)c2n1)c1ccc(C(=O)N[C@@H](CCC(=O)O)C(=O)O)cc1 [MTX, Methotrexate]",MTX constantly released from the PLA stereocomplex,[3],About 30%
CC(C)Cc1ccc(C(C)C(=O)O)cc1 (stereo not drawn) [ibuprofen],time over which the tablets released ibuprofen,[4],one
Leutinizing Hormone Releasing Hormone [LHRH],time over which LHRH was constantly released from nanospheres,[5],over 3 weeks
pL-Glu-L-His-L-Pro_NH2 [TRH],time over which TRH was constantly released,[6],6 weeks
